# Test results reported in patent US20250340575A1, “4-AMINOPYRROLO[2,1-F][1,2,4]TRIAZINES AND PREPARATION AND USES THEREOF” (Biosplice Therapeutics, Inc., priority 2024, published 2025).
# Biological target: recombinant DYRK1A kinase (Homo sapiens, UniProt Q13627)
# Assay: DYRK1A kinase assay (Ser/Thr 18 peptide Z-lyte FRET)
# Assay type: biochemical
# Settings: DYRK1A 0.25 μg/mL, ATP 15 μM, Ser/Thr peptide 18 4 μM, one hour at room temperature, 11-point dose-response from 10 μM
row,IC50,SMILES
1,3.6 nM,"CNc1nc(N[C@H]2CC[C@](C)(O)CC2)nn2cc(F)c(-c3ccc4nnn(CC(F)F)c4n3)c12 [Compound 286, (1r,4r)-4-((5-(3-(2,2-Difluoroethyl)-3H-[1,2,3]triazolo[4,5-b]pyridin-5-yl)-6-fluoro-4-(methylamino)pyrrolo[2,1-f][1,2,4]triazin-2-yl)amino)-1-methylcyclohexan-1-ol]"
2,2.4 nM,"CNc1nc(N[C@H]2CCN(C(C)=O)C[C@H]2F)nn2cc(F)c(-c3ccc4nnn(CC(F)F)c4n3)c12 [Compound 288, 1-((3R,4S)-4-((5-(3-(2,2-Difluoroethyl)-3H-[1,2,3]triazolo[4,5-b]pyridin-5-yl)-6-fluoro-4-(methylamino)pyrrolo[2,1-f][1,2,4]triazin-2-yl)amino)-3-fluoropiperidin-1-yl)ethan-1-one]"
3,1.2 nM,"CNc1nc(N[C@H]2CCN(C3COC3)C[C@H]2F)nn2cc(F)c(-c3ccc4nnn(CC(F)F)c4n3)c12 [Compound 290, 5-(3-(2,2-Difluoroethyl)-3H-[1,2,3]triazolo[4,5-b]pyridin-5-yl)-6-fluoro-N^2-((3R,4S)-3-fluoro-1-(oxetan-3-yl)piperidin-4-yl)-N^4-methylpyrrolo[2,1-f][1,2,4]triazine-2,4-diamine]"
4,1.2 nM,"CNc1nc(N[C@@H]2CCN(C)CC2(F)F)nn2cc(F)c(-c3ccc4nnn(CC(F)F)c4n3)c12 [Compound 291, (R)—N^2-(3,3-Difluoro-1-methylpiperidin-4-yl)-5-(3-(2,2-difluoroethyl)-3H-[1,2,3]triazolo[4,5-b]pyridin-5-yl)-6-fluoro-N^4-methylpyrrolo[2,1-f][1,2,4]triazine-2,4-diamine]"
5,1.9 nM,"CNc1nc(N[C@@H]2CCN(C(C)=O)CC2(F)F)nn2cc(F)c(-c3ccc4nnn(CC(F)F)c4n3)c12 [Compound 293, (R)-1-(4-((5-(3-(2,2-Difluoroethyl)-3H-[1,2,3]triazolo[4,5-b]pyridin-5-yl)-6-fluoro-4-(methylamino)pyrrolo[2,1-f][1,2,4]triazin-2-yl)amino)-3,3-difluoropiperidin-1-yl)ethan-1-one]"
6,1.4 nM,"CNc1nc(N[C@@H]2CCN(C3COC3)CC2(F)F)nn2cc(F)c(-c3ccc4nnn(CC(F)F)c4n3)c12 [Compound 295, (R)—N^2-(3,3-Difluoro-1-(oxetan-3-yl)piperidin-4-yl)-5-(3-(2,2-difluoroethyl)-3H-[1,2,3]triazolo[4,5-b]pyridin-5-yl)-6-fluoro-N^4-methylpyrrolo[2,1-f][1,2,4]triazine-2,4-diamine]"
7,11.2 nM,"CNc1nc(N[C@H]2CCN(C)C[C@H]2F)nn2ccc(-c3ccc4nnn(CCCF)c4n3)c12 [Compound 333, N^2-((3R,4S)-3-Fluoro-1-methylpiperidin-4-yl)-5-(3-(3-fluoropropyl)-3H-[1,2,3]triazolo[4,5-b]pyridin-5-yl)-N^4-methylpyrrolo[2,1-f][1,2,4]triazine-2,4-diamine]"
8,3.4 nM,"CNc1nc(N[C@H]2CCN(C(C)=O)C[C@H]2F)nn2ccc(-c3ccc4nnn(CCCF)c4n3)c12 [Compound 335, 1-((3R,4S)-3-Fluoro-4-((5-(3-(3-fluoropropyl)-3H-[1,2,3]triazolo[4,5-b]pyridin-5-yl)-4-(methylamino)pyrrolo[2,1-f][1,2,4]triazin-2-yl)amino)piperidin-1-yl)ethan-1-one]"
9,4.4 nM,"CNc1nc(N[C@H]2CCN(C3COC3)C[C@H]2F)nn2ccc(-c3ccc4nnn(CCCF)c4n3)c12 [Compound 337, N^2-((3R,4S)-3-Fluoro-1-(oxetan-3-yl)piperidin-4-yl)-5-(3-(3-fluoropropyl)-3H-[1,2,3]triazolo[4,5-b]pyridin-5-yl)-N^4-methylpyrrolo[2,1-f][1,2,4]triazine-2,4-diamine]"
10,3.1 nM,"CNc1nc(N[C@@H]2CCN(C)CC2(F)F)nn2ccc(-c3ccc4nnn(CCCF)c4n3)c12 [Compound 338, (R)—N^2-(3,3-Difluoro-1-methylpiperidin-4-yl)-5-(3-(3-fluoropropyl)-3H-[1,2,3]triazolo[4,5-b]pyridin-5-yl)-N^4-methylpyrrolo[2,1-f][1,2,4]triazine-2,4-diamine]"
11,3.5 nM,"CNc1nc(N[C@@H]2CCN(C(C)=O)CC2(F)F)nn2ccc(-c3ccc4nnn(CCCF)c4n3)c12 [Compound 339, (R)-1-(3,3-Difluoro-4-((5-(3-(3-fluoropropyl)-3H-[1,2,3]triazolo[4,5-b]pyridin-5-yl)-4-(methylamino)pyrrolo[2,1-f][1,2,4]triazin-2-yl)amino)piperidin-1-yl)ethan-1-one]"
12,4.2 nM,"CCNc1nc(N[C@H]2CCN(C3COC3)C[C@H]2F)nn2ccc(-c3ccc4nnn(CC(F)F)c4n3)c12 [Compound 403, 5-(3-(2,2-Difluoroethyl)-3H-[1,2,3]triazolo[4,5-b]pyridin-5-yl)-N^4-ethyl-N^2-((3R,4S)-3-fluoro-1-(oxetan-3-yl)piperidin-4-yl)pyrrolo[2,1-f][1,2,4]triazine-2,4-diamine]"
13,9.7 nM,"CC(C)Nc1nc(N[C@H]2CCN(C3COC3)C[C@H]2F)nn2ccc(-c3ccc4nnn(CC(F)F)c4n3)c12 [Compound 411, 5-(3-(2,2-Difluoroethyl)-3H-[1,2,3]triazolo[4,5-b]pyridin-5-yl)-N^2-((3R,4S)-3-fluoro-1-(oxetan-3-yl)piperidin-4-yl)-N^4-isopropylpyrrolo[2,1-f][1,2,4]triazine-2,4-diamine]"
14,8.2 nM,"FC(F)Cn1nnc2ccc(-c3ccn4nc(N[C@H]5CCN(C6COC6)C[C@H]5F)nc(NC5CC5)c34)nc21 [Compound 419, N^4-Cyclopropyl-5-(3-(2,2-difluoroethyl)-3H-[1,2,3]triazolo[4,5-b]pyridin-5-yl)-N^2-((3R,4S)-3-fluoro-1-(oxetan-3-yl)piperidin-4-yl)pyrrolo[2,1-f][1,2,4]triazine-2,4-diamine]"
